Assay results published in patent publication US12576059B2, “Methods and compositions for treatment of inflammatory disease” (priority 2021, dated 2026).

Experiments:
[1] = system: LPS induced acute lung inflammation; test: Example 1: LPS induced acute lung inflammation, interalveolar septa distance; assay type: in vivo, mice; settings: for Interalveolar space (average spatial distance for the interalveolar septa): 6-week course, then single intranasal LPS
Source text: LPS administration is known to promote inflammation through various mechanisms including secretion of pro-inflammatory cytokines, eicosanoids and induction of ROS. This example employed LPS to ascertain the extent of inflammation arising from ROS induced oxidation of H-AA versus D-AA in the lungs of mice. Specifically, four groups of mice were used. The first group was control mice treated with H-LA control mice. The second group of mice received a 6-week course of D-LA. It is understood that in vivo conversion of a portion of both H-LA and D-LA occurs to provide for AA and 13,13-D2-AA respectively. The third group of mice received a 6-week course of H-AA. The fourth group of mice received a 6-week course of D-AA. All groups then received a single intranasal administration of LPS to induce acute lung inflammation. The degree of the inflammatory response was based on the interalveolar septa distance where the larger the distance of the septa, the greater the degree of inflammation. The animals were sacrificed and the interalveolar septa distance was measured. Table 1 provides an average degree of spatial distance for the interalveolar septa for the results of all groups.

[2] = system: LPS-treated mice lungs; test: Example 5: H-LA / D2-LA by oral gavage, then intranasal LPS, lung histology; assay type: in vivo, BALB/c mice; settings: 6 weeks of H-LA or D2-LA, then 1 mg/kg intranasal LPS, 24 hours
Protocol: (§1) Lung, stomach and colon samples were fixed with 4% formaldehyde (freshly prepared from paraformaldehyde), paraffin embedded and cut into 2-4 μm sections. For routine histology, all fixed tissue sections were stained with hematoxylin-eosin (H&E). All slides were evaluated at 10 fields each using a Genetic Pro Bino light microscope (A) and photographed with a digital camera (Delta Optical). Stomach and colon tissue sections were analyzed for signs of active and chronic inflammation, formation of lymph follicles, and hyperplasia of epithelial cells. The severity of lung injury was scored according to lung pathological changes, including interalveolar and perivascular hemorrhages, peri-vascular and peribronchial infiltration, perivascular edema, thickness of alveolar wall, alveolar space value, and emphysematous transformations. Lung tissue samples were additionally stained with commercially available Martius Scarlet Blue (MSB) stain kit (Avantik, USA) for fibrin visualization. The presence of homogeneous fibrin masses of yellow, pink or red color in the lung blood vessels were interpreted as thrombotic masses.
In our first experiment, we evaluated the effects of linoleic acid (LA) supplementation on interalveolar septa thickness and AS in LPS-treated mice. […]

[3] = human, in vivo, po; cited from earlier work
[4] = system: LPS induced acute lung inflammation; test: Example 2: LPS induced inflammation, H-AA versus D-AA, male and female mice; assay type: in vivo; settings: 6-week course, then single intranasal LPS
Protocol: LPS administration was conducted as per Example 1 above except that four groups of mice were used. The first two groups (1 and 2) were control mice (male and female). The next two groups (3 and 4) of mice received a 6-week course of H-AA (male and female). Finally, the last two groups (5 and 6) of mice received a 6-week course of D6-AA (second group). Groups 3, 4, 5 and 6 then received a single intranasal administration of LPS to induce acute lung inflammation. The degree of the inflammatory response was determined per Example 1. Next, the height and distance of the interalveolar septa was determined to provide for the surface area of the inflammation.

[5] = system: healthy mice; settings: in vivo
Protocol: (§2) Mouse diet was from Research Diets (New Brunswick, NJ) based on fat-free AIN-93G. Fat was added at 11.3% by weight total fat and 0.25% either normal H-AA or D-AA respectively (Table 5).
Male and Female BALB/c and C57BL/6 mice were provided with standard environmental conditions i.e., 22±1° C., 55±5% humidity and 12 h light/dark cycle with free food and water access. At the age of six weeks, animals were split into 8 groups (n=160 total, 20 of each gender) and were continuously fed ad libitum on the diet containing either H-AA or D-AA for 2, 4, 6 or 8 weeks at the daily rate of ca. 5 g of diet per mouse for the duration of the study. The other two groups of animals (n=40, 20 of each gender) received neither PUFA-enriched diets nor LPS served as controls. The body weight and food intake were measured once a week. After completing the appropriate diet course, half of the mice in each group (10 females and 10 males) (i) underwent the procedure of bronchoalveolar lavage (BAL) to accomplish cytological smears, (ii) were subjected to tissue harvesting and collection of colon contents (after humane euthanasia with lethal dose of sodium thiopental, 100 mg/kg intravenously). On the ninth week of this diet course, the other half of the group was administered 1 mg/kg of intranasal (IN) LPS from Escherichia coli O111:B4 (Sigma Aldrich) 24 hours prior to BAL and subsequent euthanasia. 40 D-AA fed animals (20 males, 20 females) were switched to the H-AA diet for washout experiments. […]
as §1, with “masses. […]” for “masses.”
Cell free BAL fluid supernatants as well as colon tissue samples were analyzed using commercially available Mouse IL-1B ELISA Kit (R&D systems, Lot P265854, USA) and the Biotek ELx-808 microplate reader (Biotek, USA) according to the instructions recommended by the manufacturer).

[6] = system: LPS-induced acute lung injury; test: Example 5: response to intranasal LPS in mice fed AA diets (ALI model); assay type: in vivo, BALB/c and C57BL/6 mice
Protocol: as §2
Male and Female BALB/c and C57BL/6 mice were provided with standard environmental conditions i.e., 22±1° C., 55±5% humidity and 12 h light/dark cycle with free food and water access. At the age of six weeks, animals were split into 8 groups (n=160 total, 20 of each gender) and were continuously fed ad libitum on the diet containing either H-AA or D-AA for 2, 4, 6 or 8 weeks at the daily rate of ca. 5 g of diet per mouse for the duration of the study. The other two groups of animals (n=40, 20 of each gender) received neither PUFA-enriched diets nor LPS served as controls. The body weight and food intake were measured once a week. After completing the appropriate diet course, half of the mice in each group (10 females and 10 males) (i) underwent the procedure of bronchoalveolar lavage (BAL) to accomplish cytological smears, (ii) were subjected to tissue harvesting and collection of colon contents (after humane euthanasia with lethal dose of sodium thiopental, 100 mg/kg intravenously). On the ninth week of this diet course, the other half of the group was administered 1 mg/kg of intranasal (IN) LPS from Escherichia coli O111:B4 (Sigma Aldrich) 24 hours prior to BAL and subsequent euthanasia. 40 D-AA fed animals (20 males, 20 females) were switched to the H-AA diet for washout experiments.
Cell differential counts were performed on smear slides from resuspended cell pellets of BAL, using commercially available May-Grünwald-Giemsa staining kits. All slides were evaluated in a light microscope (Optec BK5000) at ×200 magnification. These cell counts such as lymphocytes, neutrophils, plasmacytes and macrophages were obtained from 10 fields of each slide.
as §1
We challenged mice fed AA-diets for 6 weeks using LPS treatment. […] Perivascular edema, signs of thrombosis, alveolar wall thickening, irregular distribution of air spaces, and focal areas of alveolar hemorrhage were also observed. We preferred intranasal administration to the more extreme intratracheal route that induces IL-1β which in turn amplifies inflammation making it difficult to distinguish between the early and late consequences of the LPS challenge. Indeed, 24 hours after intranasal administration of LPS at a dose of 1 mg/kg, there was no significant increase in the IL-1B content in BAL fluid or colon homogenates compared to animals not treated with LPS regardless of type or duration of the diets. Intranasal LPS 24 hours post administration increased neutrophils in BAL fluid in all treated groups regardless of gender or form of AA diets.

Compound | Interalveolar space (average spatial distance for the interalveolar septa) [1] [μm] | alveolar wall / interalveolar septum thickness (in words) [2] | reduction in the spatial distance for the interalveolar septa ([1]; D-LA relative to H-LA, comparator for D-AA not stated) [%] | safety record [3] | Interalveolar space ([4]; female mice) [μm] | Interalveolar surface area ([4]; female mice) [μm^2] | Interalveolar space ([4]; male mice) [μm] | Interalveolar surface area ([4]; male mice) [μm^2] | alveolar wall thickness, H-AA versus D-AA cohorts ([5]; both, BALB/c and C57BL/6, mouse, 8 weeks) | alveolar spaces ([5]; mouse) | average thickness of interalveolar septa, H-AA versus D-AA ([5]; mouse) | tolerability ([5]; mouse) | LPS-induced interalveolar septa / wall thickening (in words) ([6]; 6-week diet, then single intranasal LPS) | LPS-induced lung tissue damage, inflammation and emphysema (in words) ([6]; dietary consumption prior to LPS exposure)
CCCCC/C=C\C/C=C\CCCCCCCC(=O)O [H-LA, linoleic acid] | 14.2 | significantly higher |  |  |  |  |  |  |  |  |  |  |  | 
[2H]C([2H])(/C=C\CCCCC)/C=C\CCCCCCCC(=O)O [D-LA, 11,11-D2-Linoleic Acid] | 10.7 | small, but statistically significant decrease | ~25 | impressive safety record |  |  |  |  |  |  |  |  |  | 
CCCCC/C=C\C/C=C\C/C=C\C/C=C\CCCC(=O)O [H-AA, arachidonic acid, reference compound] | 9.1 |  |  |  | ~9.7 | ~380 | ~8.1 | ~540 | significantly (p≤0.05) thicker | No relevant changes | did not significantly differ | well tolerated without apparent adverse reactions | significantly increased | did not improve and even aggravated
